The record followed here is patent US20080188666A1, “LINEAR PHENYL-SUBSTITUTED INDAZOLES AND INDOLES, A PROCESS FOR THEIR PRODUCTION AND THEIR USE AS ANTI-INFLAMMATORY AGENTS” (priority 2006, published 2008).

The target in assay [1] is T1, mineral corticoid receptor (MR) (Homo sapiens, UniProt P08235).
T1 construct: made in house
T1 sequence (P08235 1-984): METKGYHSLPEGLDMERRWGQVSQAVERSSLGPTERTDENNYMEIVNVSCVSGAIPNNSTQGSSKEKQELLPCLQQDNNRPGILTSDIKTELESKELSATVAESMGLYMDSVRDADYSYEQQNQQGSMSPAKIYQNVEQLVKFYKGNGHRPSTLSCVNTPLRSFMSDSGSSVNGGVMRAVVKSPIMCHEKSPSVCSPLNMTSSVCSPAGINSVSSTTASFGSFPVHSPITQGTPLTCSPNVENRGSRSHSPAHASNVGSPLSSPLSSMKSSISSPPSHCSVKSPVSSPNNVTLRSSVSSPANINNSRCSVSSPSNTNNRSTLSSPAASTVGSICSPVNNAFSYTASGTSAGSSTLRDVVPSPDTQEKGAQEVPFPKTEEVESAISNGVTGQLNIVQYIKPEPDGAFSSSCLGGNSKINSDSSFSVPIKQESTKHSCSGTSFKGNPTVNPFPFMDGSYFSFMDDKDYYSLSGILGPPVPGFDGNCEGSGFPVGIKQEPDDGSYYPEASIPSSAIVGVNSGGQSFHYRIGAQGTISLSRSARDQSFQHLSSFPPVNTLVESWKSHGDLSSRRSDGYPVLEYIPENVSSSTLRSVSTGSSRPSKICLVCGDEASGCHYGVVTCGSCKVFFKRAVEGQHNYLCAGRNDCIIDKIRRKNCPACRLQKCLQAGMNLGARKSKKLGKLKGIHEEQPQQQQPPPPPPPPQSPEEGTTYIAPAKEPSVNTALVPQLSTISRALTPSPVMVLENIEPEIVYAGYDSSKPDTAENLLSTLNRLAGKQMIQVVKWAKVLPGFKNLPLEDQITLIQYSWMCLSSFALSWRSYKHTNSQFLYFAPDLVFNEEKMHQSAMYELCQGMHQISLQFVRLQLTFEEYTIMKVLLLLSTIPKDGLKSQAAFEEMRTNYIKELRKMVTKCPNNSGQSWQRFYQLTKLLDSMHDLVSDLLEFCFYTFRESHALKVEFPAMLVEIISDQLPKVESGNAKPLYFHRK
Description: binding to recombinantly produced mineral corticoid receptor. The settings on record: recombinant receptor. From the text:
(§1) The binding of the substances to the glucocorticoid receptor (GR) and other steroid hormone receptors (mineral corticoid receptor (MR), progesterone receptor (PR) and androgen receptor (AR)) is examined with the aid of recombinantly produced receptors. Cytosol preparations of Sf9 cells, which had been infected with recombinant baculoviruses, which code for the GR, are used for the binding studies. In comparison to reference substance [^3H]-dexamethasone, the substances show a high to very high affinity to GR. IC50(GR)=6.0 nM was thus measured for the compound from Example B7; IC50(MR), IC50(PR), IC50(AR)>1 μmol.

Assay [2] has as its target T2, glucocorticoid receptor (GR) (Homo sapiens, UniProt P04150).
T2 construct: made in house; host or cells: Sf9 cells infected with recombinant baculovirus (cytosol preparation)
T2 sequence (P04150 1-777): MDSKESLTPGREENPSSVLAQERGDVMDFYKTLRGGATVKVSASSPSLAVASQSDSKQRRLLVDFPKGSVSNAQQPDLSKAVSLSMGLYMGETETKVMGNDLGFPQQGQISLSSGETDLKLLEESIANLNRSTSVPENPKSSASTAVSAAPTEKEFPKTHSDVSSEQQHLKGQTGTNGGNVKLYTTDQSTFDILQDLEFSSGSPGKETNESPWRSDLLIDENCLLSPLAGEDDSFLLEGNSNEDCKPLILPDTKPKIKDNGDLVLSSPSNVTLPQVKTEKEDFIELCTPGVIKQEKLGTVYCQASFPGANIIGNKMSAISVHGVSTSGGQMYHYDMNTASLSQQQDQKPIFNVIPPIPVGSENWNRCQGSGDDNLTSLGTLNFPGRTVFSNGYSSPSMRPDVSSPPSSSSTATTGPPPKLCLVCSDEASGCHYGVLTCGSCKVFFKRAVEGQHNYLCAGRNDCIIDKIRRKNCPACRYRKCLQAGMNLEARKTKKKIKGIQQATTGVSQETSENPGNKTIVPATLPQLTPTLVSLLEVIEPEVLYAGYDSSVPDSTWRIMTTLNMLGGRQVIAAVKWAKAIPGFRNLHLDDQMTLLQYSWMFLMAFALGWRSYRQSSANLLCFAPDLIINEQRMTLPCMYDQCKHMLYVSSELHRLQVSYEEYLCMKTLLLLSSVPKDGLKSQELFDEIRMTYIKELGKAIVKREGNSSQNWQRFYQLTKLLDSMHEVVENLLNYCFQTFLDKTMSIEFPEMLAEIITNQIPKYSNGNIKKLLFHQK
As to the kind of experiment: binding to recombinantly produced glucocorticoid receptor, Sf9 cytosol, [3H]-dexamethasone reference. To be noted: recombinant GR.
From the text: as §1

Assay [3] concerns secretion of cytokine IL-8 in human monocyte cell line THP-1. Description: inhibition of LPS-triggered IL-8 secretion in THP-1 cells (ELISA). It counts as cell-based. As to the method: The concentration of the cytokines was determined in the supernatant by means of commercially available ELISA kits.
Assay [4] deals with T3, progesterone receptor (PR) (Homo sapiens, UniProt P06401).
T3 construct: made in house
T3 sequence (P06401 1-933): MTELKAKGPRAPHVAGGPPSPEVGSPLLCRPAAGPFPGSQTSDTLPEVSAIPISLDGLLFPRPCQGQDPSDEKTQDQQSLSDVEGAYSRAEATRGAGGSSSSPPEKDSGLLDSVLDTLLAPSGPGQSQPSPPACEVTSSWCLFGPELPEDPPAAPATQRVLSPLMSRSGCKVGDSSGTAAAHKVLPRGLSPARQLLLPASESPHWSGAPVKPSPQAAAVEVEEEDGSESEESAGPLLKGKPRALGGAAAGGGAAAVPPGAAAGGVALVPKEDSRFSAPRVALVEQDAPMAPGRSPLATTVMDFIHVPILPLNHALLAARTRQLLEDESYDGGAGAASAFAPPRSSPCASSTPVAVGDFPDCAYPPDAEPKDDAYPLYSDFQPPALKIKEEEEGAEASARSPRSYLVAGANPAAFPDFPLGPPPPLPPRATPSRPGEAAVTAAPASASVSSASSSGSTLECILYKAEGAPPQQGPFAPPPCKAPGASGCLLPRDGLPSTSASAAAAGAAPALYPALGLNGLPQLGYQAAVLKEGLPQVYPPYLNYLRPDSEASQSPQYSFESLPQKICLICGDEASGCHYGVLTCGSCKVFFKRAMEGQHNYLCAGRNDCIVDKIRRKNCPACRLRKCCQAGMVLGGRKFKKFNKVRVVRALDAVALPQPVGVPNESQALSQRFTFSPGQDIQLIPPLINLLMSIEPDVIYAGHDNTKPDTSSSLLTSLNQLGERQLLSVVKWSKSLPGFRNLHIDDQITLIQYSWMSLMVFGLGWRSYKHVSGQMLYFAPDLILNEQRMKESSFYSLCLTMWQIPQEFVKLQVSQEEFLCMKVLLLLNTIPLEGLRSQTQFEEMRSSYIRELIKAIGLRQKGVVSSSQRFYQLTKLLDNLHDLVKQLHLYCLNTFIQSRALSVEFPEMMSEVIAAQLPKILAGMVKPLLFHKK
Description: binding to recombinantly produced progesterone receptor. The settings on record: recombinant receptor.
From the text: as §1

For another assay, the target named is T4, androgen receptor (AR) (Homo sapiens, UniProt P10275).
T4 construct: made in house
T4 sequence (P10275 1-920): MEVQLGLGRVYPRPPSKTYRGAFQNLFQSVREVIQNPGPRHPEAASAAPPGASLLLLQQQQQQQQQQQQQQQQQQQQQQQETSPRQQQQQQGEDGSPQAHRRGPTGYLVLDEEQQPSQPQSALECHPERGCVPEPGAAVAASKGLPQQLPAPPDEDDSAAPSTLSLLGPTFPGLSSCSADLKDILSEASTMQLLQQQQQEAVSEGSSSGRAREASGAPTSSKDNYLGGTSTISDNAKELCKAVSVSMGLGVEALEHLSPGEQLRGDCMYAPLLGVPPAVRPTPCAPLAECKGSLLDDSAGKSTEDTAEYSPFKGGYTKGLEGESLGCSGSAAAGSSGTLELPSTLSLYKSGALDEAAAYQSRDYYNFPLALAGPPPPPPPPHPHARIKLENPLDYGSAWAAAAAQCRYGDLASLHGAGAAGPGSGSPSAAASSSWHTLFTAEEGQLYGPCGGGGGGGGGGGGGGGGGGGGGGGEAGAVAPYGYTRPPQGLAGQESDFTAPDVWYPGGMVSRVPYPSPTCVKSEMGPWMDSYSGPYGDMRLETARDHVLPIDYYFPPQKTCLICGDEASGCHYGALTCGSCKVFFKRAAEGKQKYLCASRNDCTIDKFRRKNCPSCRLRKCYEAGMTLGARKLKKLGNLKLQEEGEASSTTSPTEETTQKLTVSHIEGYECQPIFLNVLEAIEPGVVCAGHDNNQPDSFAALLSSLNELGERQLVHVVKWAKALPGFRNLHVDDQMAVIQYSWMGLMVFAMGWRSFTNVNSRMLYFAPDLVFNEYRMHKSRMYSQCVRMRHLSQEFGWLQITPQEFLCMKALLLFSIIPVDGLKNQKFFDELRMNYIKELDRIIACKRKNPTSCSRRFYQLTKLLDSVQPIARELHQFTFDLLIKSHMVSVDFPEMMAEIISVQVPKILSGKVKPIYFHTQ
Description: binding to recombinantly produced androgen receptor. The settings on record: recombinant receptor.
From the text: as §1

For the compound `CC(C)(CC(O)(CNc1cccc2c1cnn2-c1ccc(F)nc1)C(F)(F)F)c1cc(F)ccc1O` (stereo not drawn) [Example B7, 4-(5-Fluoro-2-hydroxyphenyl)-4-methyl-1-{[1-(6-fluoropyridin-3-yl)indazol-4-yl]amino}-2-(trifluoromethyl)pentan-2-ol], the IC50 in assay [1] was over 1000 nM; in assay [2], 6 nM; in assay [3] (Homo sapiens, THP-1, supernatant ELISA, read-out: IC50(IL8)) it was 0.72 nM; in assay [4] it was over 1000 nM; on androgen receptor (AR) it was over 1000 nM. Also, in assay [3] (THP-1), the “eff. relative to dexamethasone (IL-8 inhibition)” value is given as 97%.
